Results on 23 molecules are retold here after US20250122218A1, “MODULATORS OF CYSTIC FIBROSIS TRANSMEMBRANE CONDUCTANCE REGULATOR” (Vertex Pharmaceuticals Incorporated, priority 2022, published 2025).

Molecules are shown by their SMILES. Some results are limits rather than exact numbers.

T1 sequence (P13569 with tags, fused parts or gaps DEL508-508): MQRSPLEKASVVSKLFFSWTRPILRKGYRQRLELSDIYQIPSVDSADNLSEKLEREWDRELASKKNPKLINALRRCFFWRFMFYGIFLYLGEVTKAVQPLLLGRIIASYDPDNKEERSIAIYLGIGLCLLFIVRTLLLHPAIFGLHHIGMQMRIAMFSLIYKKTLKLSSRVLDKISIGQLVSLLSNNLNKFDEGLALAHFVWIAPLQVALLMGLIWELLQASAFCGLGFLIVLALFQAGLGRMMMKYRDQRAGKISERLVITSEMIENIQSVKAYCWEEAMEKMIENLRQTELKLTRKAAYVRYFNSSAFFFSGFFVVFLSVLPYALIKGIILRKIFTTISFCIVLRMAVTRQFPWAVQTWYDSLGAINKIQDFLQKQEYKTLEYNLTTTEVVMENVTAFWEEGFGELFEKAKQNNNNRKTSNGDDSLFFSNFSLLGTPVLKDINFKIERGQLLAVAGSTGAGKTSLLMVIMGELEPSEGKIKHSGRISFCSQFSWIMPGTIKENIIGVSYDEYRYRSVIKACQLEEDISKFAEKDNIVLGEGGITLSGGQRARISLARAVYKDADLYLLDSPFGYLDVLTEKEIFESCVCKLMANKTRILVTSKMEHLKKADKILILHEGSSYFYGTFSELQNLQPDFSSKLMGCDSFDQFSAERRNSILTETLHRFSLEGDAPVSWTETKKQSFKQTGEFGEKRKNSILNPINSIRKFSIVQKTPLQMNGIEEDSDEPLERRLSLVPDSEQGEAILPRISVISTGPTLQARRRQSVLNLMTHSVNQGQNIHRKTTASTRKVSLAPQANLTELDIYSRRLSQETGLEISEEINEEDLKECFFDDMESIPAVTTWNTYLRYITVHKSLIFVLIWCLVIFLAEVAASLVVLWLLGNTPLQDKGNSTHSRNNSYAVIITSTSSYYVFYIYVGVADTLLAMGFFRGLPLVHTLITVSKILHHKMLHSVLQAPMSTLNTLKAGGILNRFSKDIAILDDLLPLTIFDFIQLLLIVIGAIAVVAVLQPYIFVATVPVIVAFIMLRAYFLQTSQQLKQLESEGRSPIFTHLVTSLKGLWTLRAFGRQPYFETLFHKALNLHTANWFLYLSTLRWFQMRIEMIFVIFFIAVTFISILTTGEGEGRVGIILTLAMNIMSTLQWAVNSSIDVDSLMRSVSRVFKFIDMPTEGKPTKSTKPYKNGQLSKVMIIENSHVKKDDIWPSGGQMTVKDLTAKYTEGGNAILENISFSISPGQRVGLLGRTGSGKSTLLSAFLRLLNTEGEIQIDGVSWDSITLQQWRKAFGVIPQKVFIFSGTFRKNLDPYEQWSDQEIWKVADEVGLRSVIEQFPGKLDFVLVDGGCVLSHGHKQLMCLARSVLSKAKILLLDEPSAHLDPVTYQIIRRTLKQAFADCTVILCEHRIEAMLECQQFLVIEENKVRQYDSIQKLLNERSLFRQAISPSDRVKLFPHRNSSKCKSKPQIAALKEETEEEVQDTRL

The test has as its target T1, CFTR in F508del/MF-HBE cells (Homo sapiens, UniProt P13569, DEL508-508).
T1 construct: human bronchial epithelial (HBE) cells derived from CF subjects heterozygous for F508del and a minimal function CFTR mutation; endogenous in cells; host or cells: primary human bronchial epithelial cells from CF subjects (F508del/MF-HBE)
The experiment in a line: Ussing chamber assay of CFTR-mediated short-circuit currents (identification of potentiator compounds). Conditions: potentiator incubated 18-24 hours at 37° C. in combination with 10 μM corrector, in the presence of 20% human serum, CFTR-mediated ISC. Type of test: cell-based. Summed up:
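F508del/MF-HBE cultures were preincubated 18-24 h at 37° C with potentiator plus 10 μM of a fixed corrector compound in 20% human serum; compounds were kept present during measurement. ISC was recorded under voltage clamp (0 mV, 37° C, amiloride apical) and taken as the 20 μM forskolin peak minus the current after inhibitor cocktail.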
For `Nc1cc(C(F)(F)F)c2nc1-c1nnc(o1)[C@@](O)(C(F)(F)F)CCCCCN(C1C3CC1C3)C2=O` (stereo partly drawn) [Compound 92, (6R)-17-Amino-12-(2-bicyclo[1.1.1]pentanyl)-6-hydroxy-6,15-bis(trifluoromethyl)-19-oxa-3,4,12,18-tetrazatricyclo [12.3.1.12,5] nonadeca-1(18),2,4,14,1 6-pentaen-13-one], the concentration giving a half-maximal response (EC50) (commonly the midpoint of the concentration-response curve) is under 500 nM.

Turning to `CC1(C)CC(N2CCCCC[C@](O)(C(F)(F)F)C3=NN=C(O3)c3nc(c(C(F)(F)F)cc3N)C2=O)C1` [Compound 93, (6R)-17-Amino-12-(3,3-dimethylcyclobutyl)-6-hydroxy-6,15-bis (trifluoromethyl)-19-oxa-3,4,12,18-tetrazatricyclo [12.3.1.12,5] nonadeca-1(18),2,4,14,1 6-pentaen-13-one], the EC50 is under 500 nM.

In the case of `CC1(N2CCCCC[C@](O)(C(F)(F)F)C3=NN=C(O3)c3nc(c(C(F)(F)F)cc3N)C2=O)CC1` [Compound 94, (6R)-17-Amino-6-hydroxy-12-(1-methylcyclopropyl)-6,15-bis (trifluoromethyl)-19-oxa-3,4,12,18-tetrazatricyclo [12.3.1.12,5] nonadeca-1(18),2,4,14,1 6-pentaen-13-one], the EC50 was under 500 nM.

With `Nc1cc(C(F)(F)F)c2nc1-c1nnc(o1)[C@@](O)(C(F)(F)F)CCCCCN(C1CC3(C1)CC(F)(F)C3)C2=O` [Compound 95, (6R)-17-Amino-12-(2,2-difluorospiro [3.3]heptan-6-yl)-6-hydroxy-6,15-bis (trifluoromethyl)-19-oxa-3,4,12,18-tetrazatricyclo [12.3.1.12,5] nonadeca-1(18),2,4,14,1 6-pentaen-13-one], the EC50 is under 500 nM.

For `CC1(N2CCCCC[C@](O)(C(F)(F)F)C3=NN=C(O3)c3nc(c(C(F)(F)F)cc3N)C2=O)CC(F)(F)C1` [Compound 96, (6R)-17-Amino-12-(3,3-difluoro-1-methyl-cyclobutyl)-6-hydroxy-6,15-bis (trifluoromethyl)-19-oxa-3,4,12,18-tetrazatricyclo [12.3.1.12,5] nonadeca-1(18),2,4,14,1 6-pentaen-13-one], the EC50 was under 500 nM.

As for `CC(C)(C)[C@H]1CC[C@H](N2CCCCC[C@](O)(C(F)(F)F)C3=NN=C(O3)c3nc(c(C(F)(F)F)cc3N)C2=O)CC1` [Compound 97, (6R)-17-Amino-12-(trans-4-tert-butylcyclohexyl)-6-hydroxy-6,15-bis (trifluoromethyl)-19-oxa-3,4,12,18-tetrazatricyclo [12.3.1.12,5] nonadeca-1(18),2,4,14,1 6-pentaen-13-one], the EC50 is under 500 nM.

For `Nc1cc(C(F)(F)F)c2nc1-c1nnc(o1)[C@@](O)(C(F)(F)F)CCCCCN(C1CCOCC1)C2=O` [Compound 98, (6R)-17-Amino-6-hydroxy-12-tetrahydropyran-4-yl-6,15-bis (trifluoromethyl)-19-oxa-3,4,12,18-tetrazatricyclo [12.3.1.12,5] nonadeca-1(18),2,4,14,1 6-pentaen-13-one], the EC50 was under 500 nM.

As for `Nc1cc(C(F)(F)F)c2nc1-c1nnc(o1)[C@@](O)(C(F)(F)F)CCCCCN(C1CC3(CNC3)C1)C2=O` [Compound 99, (6R)-17-Amino-12-(2-azaspiro[3.3]heptan-6-yl)-6-hydroxy-6,15-bis (trifluoromethyl)-19-oxa-3,4,12,18-tetrazatricyclo [12.3.1.12,5] nonadeca-1(18),2,4,14,1 6-pentaen-13-one], the EC50 is over 1000 nM.

As to `Nc1cc(C(F)(F)F)c2nc1-c1nnc(o1)[C@@](O)(C(F)(F)F)CCCCCN(C1CCCC1)C2=O` [Compound 100, (6R)-17-Amino-12-cyclopentyl-6-hydroxy-6,15-bis (trifluoromethyl)-19-oxa-3,4,12,18-tetrazatricyclo [12.3.1.12,5] nonadeca-1(18),2,4,14,1 6-pentaen-13-one], the EC50 was under 500 nM.

In the case of `Nc1cc(C(F)(F)F)c2nc1-c1nnc(o1)[C@@](O)(C(F)(F)F)CCCCCN(Cc1ccc3c(c1)OC(F)(F)O3)C2=O` [Compound 101, (6R)-Amino-12-[(2,2-difluoro-1,3-benzodioxol-5-yl)methyl]-6-hydroxy-6,15-bis (trifluoromethyl)-19-oxa-3,4,12,18-tetrazatricyclo [12.3.1.12,5] nonadeca-1(18),2,4,14,1 6-pentaen-13-one], the EC50 is under 500 nM.

As for `Nc1cc(C(F)(F)F)c2nc1-c1nnc(o1)[C@@](O)(C(F)(F)F)CCCCCN(C1CCS(=O)(=O)CC1)C2=O` [Compound 102, (6R)-17-Amino-12-(1,1-dioxothian-4-yl)-6-hydroxy-6,15-bis (trifluoromethyl)-19-oxa-3,4,12,18-tetrazatricyclo [12.3.1.12,5] nonadeca-1(18),2,4,14,1 6-pentaen-13-one], the EC50 is over 1000 nM.

With `Nc1cc(C(F)(F)F)c2nc1-c1nnc(o1)[C@@](O)(C(F)(F)F)CCCCCN(C1CS(=O)(=O)C1)C2=O` [Compound 103, (6R)-17-Amino-12-(1,1-dioxothietan-3-yl)-6-hydroxy-6,15-bis (trifluoromethyl)-19-oxa-3,4,12,18-tetrazatricyclo [12.3.1.12,5] nonadeca-1(18),2,4,14,1 6-pentaen-13-one], the EC50 was over 1000 nM.

Take `C[C@@H](c1ccc(F)cc1)N1CCCCC[C@](O)(C(F)(F)F)C2=NN=C(O2)c2nc(c(C(F)(F)F)cc2N)C1=O` [Compound 104, (6R)-17-Amino-12-[(1S)-1-(4-fluorophenyl)ethyl]-6-hydroxy-6,15-bis (trifluoromethyl)-19-oxa-3,4,12,18-tetrazatricyclo [12.3.1.12,5] nonadeca-1(18),2,4,14,1 6-pentaen-13-one]: the concentration for a half-maximal effect (EC50) is under 500 nM.

As for `C[C@H](c1ccc(F)cc1)N1CCCCC[C@](O)(C(F)(F)F)C2=NN=C(O2)c2nc(c(C(F)(F)F)cc2N)C1=O` [Compound 105, (6R)-17-Amino-12-[(1R)-1-(4-fluorophenyl)ethyl]-6-hydroxy-6,15-bis (trifluoromethyl)-19-oxa-3,4,12,18-tetrazatricyclo [12.3.1.12,5] nonadeca-1(18),2,4,14,1 6-pentaen-13-one], the EC50 was under 500 nM.

Regarding `Nc1cc(C(F)(F)F)c2nc1-c1nnc(o1)[C@@](O)(C(F)(F)F)CCCCCN(Cc1ccc(OC(F)(F)F)cc1)C2=O` [Compound 106, (6R)-17-Amino-6-hydroxy-12-[[4-(trifluoromethoxy)phenyl]methyl]-6,15-bis (trifluorom 19-oxa-ethyl)-3,4,12,18-tetrazatricyclo [12.3.1.12,5] nonadeca-1(18),2,4,14,1 6-pentaen-13-one], the concentration giving a half-maximal response (EC50) is under 500 nM.

`Nc1cc(C(F)(F)F)c2nc1-c1nnc(o1)[C@@](O)(C(F)(F)F)CCCCCN(c1ccccn1)C2=O` [Compound 107, (6R)-17-Amino-6-hydroxy-12-(2-pyridyl)-6,15-bis (trifluoromethyl)-19-oxa-3,4,12,18-tetrazatricyclo [12.3.1.12,5] nonadeca-1(18),2,4,14,1 6-pentaen-13-one]: the half-maximal effective concentration (EC50) was under 500 nM.

`Nc1cc(C(F)(F)F)c2nc1-c1nnc(o1)[C@@](O)(C(F)(F)F)CCCCCN(c1ccccc1)C2=O` [Compound 108, (6R)-17-Amino-6-hydroxy-12-phenyl-6,15-bis (trifluorom 19-oxa-ethyl)-3,4,12,18-tetrazatricyclo [12.3.1.12,5] nonadeca-1(18),2,4,14,1 6-pentaen-13-one]: the half-maximal effective concentration (EC50) is under 500 nM.

Consider `Cn1cc(N2CCCCC[C@](O)(C(F)(F)F)C3=NN=C(O3)c3nc(c(C(F)(F)F)cc3N)C2=O)cn1` [Compound 109, (6R)-17-Amino-6-hydroxy-12-(1-methylpyrazol-4-yl)-6,15-bis (trifluoromethyl)-19-oxa-3,4,12,18-tetrazatricyclo [12.3.1.12,5] nonadeca-1(18),2,4,14,1 6-pentaen-13-one], for which the EC50 was under 500 nM.

For `Nc1cc(C(F)(F)F)c2nc1-c1nnc(o1)[C@@](O)(C(F)(F)F)CCCCCN(Cc1cccc3ccccc13)C2=O` [Compound 110, (6R)-17-Amino-6-hydroxy-12-(1-naphthylmethyl)-6,15-bis (trifluoromethyl)-19-oxa-3,4,12,18-tetrazatricyclo [12.3.1.12,5] nonadeca-1(18),2,4,14,1 6-pentaen-13-one], the EC50 was under 500 nM.

As for `Nc1cc(C(F)(F)F)c2nc1-c1nnc(o1)[C@@](O)(C(F)(F)F)CCCCCN(Cc1ccc3ccccc3c1)C2=O` [Compound 111, (6R)-17-Amino-6-hydroxy-12-(2-naphthylmethyl)-6,15-bis (trifluoromethyl)-19-oxa-3,4,12,18-tetrazatricyclo [12.3.1.12,5] nonadeca-1(18),2,4,14,1 6-pentaen-13-one], the concentration giving a half-maximal response (EC50) is under 500 nM.

For `Nc1cc(C(F)(F)F)c2nc1-c1nnc(o1)[C@@](O)(C(F)(F)F)CCCCCN(Cc1cc[nH]n1)C2=O` [Compound 112, (6R)-17-Amino-6-hydroxy-12-(1H-pyrazol-3-ylmethyl)-6,15-bis (trifluoromethyl)-19-oxa-3,4,12,18-tetrazatricyclo [12.3.1.12,5] nonadeca-1(18),2,4,14,1 6-pentaen-13-one], the EC50 was over 1000 nM.

As for `Nc1cc(C(F)(F)F)c2nc1-c1nnc(o1)[C@@](O)(C(F)(F)F)CCCCCN(Cc1cn[nH]c1)C2=O` [Compound 113, (6R)-17-Amino-6-hydroxy-12-(1H-pyrazol-4-ylmethyl)-6,15-bis (trifluoromethyl)-19-oxa-3,4,12,18-tetrazatricyclo [12.3.1.12,5] nonadeca-1(18),2,4,14,1 6-pentaen-13-one], the EC50 was over 1000 nM.

On to `CC(C)(C)c1ccc(CN2CCCCC[C@](O)(C(F)(F)F)C3=NN=C(O3)c3nc(c(C(F)(F)F)cc3N)C2=O)cc1` [Compound 116, (6R)-17-Amino-12-[(4-tert-butylphenyl)methyl]-6-hydroxy-6,15-bis (trifluoromethyl)-19-oxa-3,4,12,18-tetrazatricyclo [12.3.1.12,5] nonadeca-1(18),2,4,14,1 6-pentaen-13-one], for which the concentration for a half-maximal effect (EC50) is under 500 nM.
